Experimental data taken from patent publication US10406246B2, “Double-labeled probe for molecular imaging and use thereof” (DEUTSCHES KREBSFORSCHUNGSZENTRUM, priority 2013, dated 2019).

Columns and labels:
PSMA = target: T1, PSMA (Homo sapiens, UniProt Q04609); test: in vitro competitive cell binding assay on LNCaP cells against 68Ga-labeled [Glu-urea-Lys(Ahx)]2-HBED-CC; conditions: 12 concentrations of analyte 0-5000 nM, mean of three experiments
T1 construct: host or cells: LNCaP cells
Procedure: The competitive cell binding assay and internalization experiments were performed as described previously (Eder et al. 2012). Briefly, the respective cells (10^5 per well) were incubated with the […] (^68Ga-labeled [Glu-urea-Lys(Ahx)]2-HBED-CC (Schafer et al. 2012)) in the presence of 12 different concentrations of analyte (0-5000 nM, 100 μL/well). After incubation, washing was carried out using a multiscreen vacuum manifold (Millipore, Billerica, Mass.). Cell-bound radioactivity was measured using a gamma counter (Packard Cobra II, GMI, Minnesota, USA). The 50% inhibitory concentration (IC50) was calculated by fitting the data using a nonlinear regression algorithm (GraphPad Software). Experiments were performed three times.
The competitive cell binding assay and internalization experiments were performed as described previously (Eder et al., 2012). Briefly, the respective cells (10^5 per well) were incubated with the radioligand (^68Ga-labeled [Glu-urea-Lys(Ahx)]2-HBED-CC (Schäfer et al., 2012)) in the presence of 12 different concentrations of analyte (0-5000 nM, 100 μL/well). After incubation, washing was carried out using a multiscreen vacuum manifold (Millipore, Billerica, Mass.). Cell-bound radioactivity was measured using a gamma counter (Packard Cobra II, GMI, Minnesota, USA). […]

[1] = tested on: PSMA positive LNCaP tumors; test: organ distribution in LNCaP tumor bearing xenografts; assay type: in vivo, BALB/c nu/nu mice; conditions: 68Ga-labeled, 1 h post injection; for Organ distribution, Blood, Mean / Organ distribution, Brain, Mean / Organ distribution, Heart, Mean / Organ distribution, Intestine, Mean / Organ distribution, Kidney, Mean / Organ distribution, Liver, Mean / Organ distribution, Lung, Mean / Organ distribution, Muscle, Mean / Organ distribution, Spleen, Mean / Organ distribution, Tumor (tumor uptake), Mean: 0.06 nmol, tail vein, n=3; for distribution profile in healthy organs: both compounds compared with each other; for Organ distribution, Tumor (tumor uptake), Mean: PSMA positive LNCaP tumors
Procedure: 7- to 8-week-old male BALB/c nu/nu mice (Charles River Laboratories) were subcutaneously inoculated into the right trunk with 5×10^6 cells of LNCaP (in 50% Matrigel; Becton Dickinson, Heidelberg, Germany). The tumors were allowed to grow until approximately 1 cm^3 in size. The radiolabeled compounds were injected into the tail vein (approx. 1 MBq per mouse; 0.06 nmol). At 1 h after injection the animals were sacrificed. Organs of interest were dissected, blotted dry, and weighed. The radioactivity was measured using a gamma counter and calculated as % ID/g.

LNCaP tumor [2] = test: comparative PET imaging of 68Ga-labeled PSMA-HBED-CC conjugates; assay type: in vivo; conditions: 1 hour post injection, LNCaP tumor-bearing nude mice
Procedure: The ^68Ga-labeled compounds PSMA-HBED-CC-FITC (the compound depicted above), PSMA-Ahx-HBED-CC-cyanine 5.5 (the compound depicted above, of which the mass was determined by mass spectrometry as being M(calculated)=1642.98; M(found)=1642.7) and PSMA-Ahx-HBED-CC (the corresponding compound without cyanine 5.5) and were injected into an LNCaP tumor-bearing nude mice. One hour post injection, […] was performed.

LNCaP cells = test: specific cell uptake, cell surface binding and internalization; assay type: cell-based, human; conditions: 68Ga-labeled
Procedure: To determine the specific cell uptake and internalization, 10^5 cells were seeded in poly-L-lysine coated 24-well cell culture plates 24 h before incubation. After washing, the cells were incubated with 25 nM of the radiolabeled compounds for 45 min at 37° C. and at 4° C., respectively. Specific cellular uptake was determined by competitive blocking with 2-(phosphonomethyl)pentanedioic acid (500 μM final concentration, PMPA, Axxora, Loerrach, Germany). Cellular uptake was terminated by washing 4 times with 1 mL of ice-cold PBS. Cells were subsequently incubated twice with 0.5 mL glycine-HCl in PBS (50 mM, pH=2.8) for 5 min to remove the surface-bound fraction. The cells were washed with 1 mL of ice-cold PBS and lysed using 0.3 N NaOH (0.5 mL). The surface-bound and the internalized fractions were measured in a gamma counter. The cell uptake was calculated as percent of the initially added radioactivity bound to 10^6 cells [% ID/10^6 cells].

LNCaP tumor [3] = test: comparative organ distribution versus Banerjee reference compounds; assay type: in vivo; conditions: 1 hour post injection, LNCaP tumor-bearing nude mice
Procedure: PSMA-Ahx-HBED-CC-FITC (as shown above) was compared with a reference compound published by Banerjee et al. (Banerjee et al., 2011, Angew Chem Int Ed Engl. 50(39):9167-9170, page 6, scheme 1, final product) and the corresponding compound without the fluorescent dye IRDye800CW bearing a free amino group of the lysyl moiety the dye IRDye800CW can be bound to. These compounds were injected into LNCaP tumor-bearing nude mice.

T1 sequence (Q04609 whole entry): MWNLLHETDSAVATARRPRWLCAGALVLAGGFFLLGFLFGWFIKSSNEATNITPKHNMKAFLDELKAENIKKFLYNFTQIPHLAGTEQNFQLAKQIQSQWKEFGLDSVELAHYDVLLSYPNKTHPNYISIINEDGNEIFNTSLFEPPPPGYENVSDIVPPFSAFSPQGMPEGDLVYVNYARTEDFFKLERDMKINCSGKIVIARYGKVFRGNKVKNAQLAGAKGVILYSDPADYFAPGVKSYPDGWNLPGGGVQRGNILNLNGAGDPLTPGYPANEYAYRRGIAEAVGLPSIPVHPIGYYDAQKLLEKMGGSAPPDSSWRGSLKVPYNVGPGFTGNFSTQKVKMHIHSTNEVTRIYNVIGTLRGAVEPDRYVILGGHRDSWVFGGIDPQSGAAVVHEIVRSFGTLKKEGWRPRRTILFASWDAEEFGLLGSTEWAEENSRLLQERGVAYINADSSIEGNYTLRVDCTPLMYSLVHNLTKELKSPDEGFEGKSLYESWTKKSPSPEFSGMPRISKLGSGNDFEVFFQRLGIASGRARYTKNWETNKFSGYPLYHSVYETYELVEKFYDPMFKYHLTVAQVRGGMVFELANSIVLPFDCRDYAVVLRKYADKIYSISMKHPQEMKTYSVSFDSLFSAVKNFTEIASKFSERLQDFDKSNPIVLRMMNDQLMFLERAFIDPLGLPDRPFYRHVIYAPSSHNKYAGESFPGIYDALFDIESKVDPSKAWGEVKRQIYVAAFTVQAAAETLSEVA

Row | Compound | IC50 (PSMA) | Organ distribution, Blood, Mean [1] | Organ distribution, Brain, Mean [1] | Organ distribution, Heart, Mean [1] | Organ distribution, Intestine, Mean [1] | Organ distribution, Kidney, Mean [1] | Organ distribution, Liver, Mean [1] | Organ distribution, Lung, Mean [1] | Organ distribution, Muscle, Mean [1] | Organ distribution, Spleen, Mean [1] | distribution profile in healthy organs [1] | Organ distribution, Tumor (tumor uptake), Mean [1] | Organ distribution, Tumor (tumor uptake), Mean ([1]; listed as Glu-urea-Lys-HBED-CC) | distribution of radioactivity and tumor uptake (PET imaging) (LNCaP tumor [2]) | Organ distribution, Tumor (tumor uptake), Mean ([1]; listed as Glu-urea-Lys-HBED-CC-dye) | internalization by LNCaP cells (LNCaP cells; 25 nM, 45 min, competitive blocking with 500 μM 2-PMPA (P<0.001)) | cell uptake and internalization profile versus Glu-urea-Lys-HBED-CC (LNCaP cells; LNCaP cells) | tumor uptake versus Banerjee reference compounds (LNCaP tumor [3])
1 | O=C(O)CCc1ccc(O)c(CN(CCN(CC(=O)O)Cc2cc(CCC(=O)NCCCCCC(=O)NCCCC[C@H](NC(=O)N[C@@H](CCC(=O)O)C(=O)O)C(=O)O)ccc2O)CC(=O)O)c1 [Glu-urea-Lys(Ahx)-HBED-CC, reference compound] | 9.82 ± 1.26 nM | 0.53 % ID/g | 0.40 % ID/g | 0.83 % ID/g | 1.14 % ID/g | 139.44 % ID/g | 1.43 % ID/g | 2.36 % ID/g | 1.00 % ID/g | 17.88 % ID/g | comparable | 4.89±1.34 % ID/g | 4.89 % ID/g | comparable distribution of radioactivity and tumor uptake |  |  |  | 
2 | O=C(O)CCC(NC(=O)NC(CCCCNC(=O)CCc1ccc(O)c(CN(CCN(CC(=O)O)Cc2cc(CCC(=O)NCCOCCOCCNC(=S)Nc3ccc4c(c3)C(=O)OC43c4ccc(O)cc4Oc4cc(O)ccc43)ccc2O)CC(=O)O)c1)C(=O)O)C(=O)O (centres unmarked) [Glu-urea-Lys-HBED-CC-Fluorescein] | 11.1 ± 1.16 nM | 1.34 % ID/g | 0.31 % ID/g | 2.22 % ID/g | 0.81 % ID/g | 138.18 % ID/g | 1.71 % ID/g | 3.09 % ID/g | 1.84 % ID/g | 45.24 % ID/g | comparable | 10.86±0.94 % ID/g |  | comparable distribution of radioactivity and tumor uptake | 10.86 % ID/g | specifically internalized | not considerably changed | 
3 | O=C(O)CCC(NC(=O)NC(CCCCNC(=O)CCCCCNC(=O)CCc1ccc(O)c(CN(CCN(CC(=O)O)Cc2cc(CCC(=O)NCCOCCOCCNC(=S)Nc3ccc4c(c3)C(=O)OC43c4ccc(O)cc4OC4C=C(O)C=CC43)ccc2O)CC(=O)O)c1)C(=O)O)C(=O)O (centres unmarked) [PSMA-Ahx-HBED-CC-FITC] |  |  |  |  |  |  |  |  |  |  |  |  |  |  |  |  |  | significantly improved
4 | CN1/C(=C/C=C/C=C/C2=[N+](CCCCCC(=O)NCCOCCOCCNC(=O)CCc3ccc(O)c(CN(CCN(CC(=O)O)Cc4cc(CCC(=O)NCCCCCC(=O)NCCCCC(NC(=O)NC(CCC(=O)O)C(=O)O)C(=O)O)ccc4O)CC(=O)O)c3)c3ccc4ccccc4c3C2(C)C)C(C)(C)c2c1ccc1ccccc21 (centres unmarked) [PSMA-Ahx-HBED-CC-cyanine 5.5] |  |  |  |  |  |  |  |  |  |  |  |  |  | comparable distribution of radioactivity and tumor uptake |  |  |  | 
